# Data as given in ChEMBL document CHEMBL3885861, “Open TG-GATES”.
# Organism: Rattus norvegicus
# Test: Open TG-GATES - Regimen: Daily Repeat
# Assay type: toxicity, organism-based, Sprague-Dawley
# Parameters: regimen Daily Repeat, gender Male, age 6 weeks
# Conditions: in vivo, po, route gavage; for APTT / Bas / Eos / Fbg / Hb / Ht / Lym / MCH / MCHC / MCV / Mono / Neu / PT / Plat / RBC / Ret / WBC: tissue Blood; for KIDNEY_L / KIDNEY_R / KIDNEY_TOTAL: tissue Kidney; for LIVER: tissue Liver; for A/G / ALP / ALT / AST / BUN / CRE / Ca / Cl / DBIL / GLC / IP / K / LDH / Na / PL / RALB / TBIL / TC / TG / TP / gamma-GTP: tissue Plasma
# [1] = 0 mg/kg, 72 h, dose level Control, time 3 day
# [2] = 0 mg/kg, […], dose level Control, time 7 day
# [3] = 0 mg/kg, […], dose level Control, time 14 day
# [4] = 0 mg/kg, […], dose level Control, time 28 day
# [5] = 1 mg/kg, 72 h, dose level Low, time 3 day
# [6] = 1 mg/kg, […], dose level Low, time 7 day
# [7] = 1 mg/kg, […], dose level Low, time 14 day
# [8] = 1 mg/kg, […], dose level Low, time 28 day
smiles,measurement,setting,value
COc1ccc2c(c1)c(CC(=O)O)c(C)n2C(=O)c1ccc(Cl)cc1 [INDOMETHACIN],TERMINAL_BW,[1],239.9 g
same,APTT,[1],17 s
same,Bas,[1],0%
same,Eos,[1],0.8%
same,Fbg,[1],211.8 mg/dL
same,Hb,[1],13.4 g/dL
same,Ht,[1],40.3%
same,Lym,[1],81.4%
same,MCH,[1],21.4 pg
same,MCHC,[1],33.1%
same,MCV,[1],64.6 fL
same,Mono,[1],8%
same,Neu,[1],10.2%
same,PT,[1],11.2 s
same,Plat,[1],122 x10_4/uL
same,RBC,[1],625.2 x10_4/ul
same,Ret,[1],7.6%
same,WBC,[1],117.2 x10_2/uL
same,KIDNEY_L,[1],1 g
same,KIDNEY_R,[1],1.1 g
same,KIDNEY_TOTAL,[1],2.1 g
same,LIVER,[1],11.9 g
same,A/G,[1],2.1
same,ALP,[1],1154.8 IU/L
same,ALT,[1],33.2 IU/L
same,AST,[1],60 IU/L
same,BUN,[1],15.4 mg/dL
same,CRE,[1],0.6 mg/dL
same,Ca,[1],10.5 mg/dL
same,Cl,[1],107 meq/L
same,DBIL,[1],0.032 mg/dL
same,GLC,[1],201.8 mg/dL
same,IP,[1],7.4 mg/dL
same,K,[1],4.8 meq/L
same,LDH,[1],95.2 IU/L
same,Na,[1],139.6 meq/L
same,PL,[1],144.4 mg/dL
same,RALB,[1],3.9 g/dL
same,TBIL,[1],0.4 mg/dL
same,TC,[1],74.2 mg/dL
same,TG,[1],86.8 mg/dL
same,TP,[1],5.7 g/dL
same,gamma-GTP,[1],1 IU/L
same,TERMINAL_BW,[2],269.3 g
same,TERMINAL_BW,[3],339.4 g
same,TERMINAL_BW,[4],433.9 g
same,APTT,[2],16.5 s
same,Bas,[2],0%
same,Eos,[2],1%
same,Fbg,[2],223.6 mg/dL
same,Hb,[2],14.1 g/dL
same,Ht,[2],42.4%
same,Lym,[2],82%
same,MCH,[2],20.9 pg
same,MCHC,[2],33.3%
same,MCV,[2],62.8 fL
same,Mono,[2],6.8%
same,Neu,[2],10%
same,PT,[2],11.8 s
same,Plat,[2],106.3 x10_4/uL
same,RBC,[2],675 x10_4/ul
same,Ret,[2],5.7%
same,WBC,[2],126.2 x10_2/uL
same,APTT,[3],16.7 s
same,Bas,[3],0%
same,Eos,[3],0.6%
same,Fbg,[3],228.8 mg/dL
same,Hb,[3],13.9 g/dL
same,Ht,[3],41.7%
same,Lym,[3],84.2%
same,MCH,[3],20.1 pg
same,MCHC,[3],33.4%
same,MCV,[3],60.3 fL
same,Mono,[3],5%
same,Neu,[3],10.4%
same,PT,[3],11.8 s
same,Plat,[3],110.6 x10_4/uL
same,RBC,[3],691.2 x10_4/ul
same,Ret,[3],5.1%
same,WBC,[3],148.4 x10_2/uL
same,APTT,[4],15.3 s
same,Bas,[4],0%
same,Eos,[4],0.8%
same,Fbg,[4],256.8 mg/dL
same,Hb,[4],14.6 g/dL
same,Ht,[4],44.4%
same,Lym,[4],86.8%
same,MCH,[4],18.5 pg
same,MCHC,[4],32.9%
same,MCV,[4],56.1 fL
same,Mono,[4],4.4%
same,Neu,[4],7.8%
same,PT,[4],11.8 s
same,Plat,[4],112.3 x10_4/uL
same,RBC,[4],792.2 x10_4/ul
same,Ret,[4],3.2%
same,WBC,[4],153.4 x10_2/uL
same,KIDNEY_L,[2],1.2 g
same,KIDNEY_R,[2],1.2 g
same,KIDNEY_TOTAL,[2],2.4 g
same,KIDNEY_L,[3],1.3 g
same,KIDNEY_R,[3],1.3 g
same,KIDNEY_TOTAL,[3],2.6 g
same,KIDNEY_L,[4],1.5 g
same,KIDNEY_R,[4],1.5 g
same,KIDNEY_TOTAL,[4],3 g
same,LIVER,[2],13.2 g
same,LIVER,[3],16 g
same,LIVER,[4],19.6 g
same,A/G,[2],2
same,ALP,[2],925.4 IU/L
same,ALT,[2],33 IU/L
same,AST,[2],63.2 IU/L
same,BUN,[2],18.4 mg/dL
same,CRE,[2],0.5 mg/dL
same,Ca,[2],10.7 mg/dL
same,Cl,[2],106.8 meq/L
same,DBIL,[2],0.012 mg/dL
same,GLC,[2],202.2 mg/dL
same,IP,[2],8.3 mg/dL
same,K,[2],5 meq/L
same,LDH,[2],97.4 IU/L
same,Na,[2],139 meq/L
same,PL,[2],144.8 mg/dL
same,RALB,[2],4 g/dL
same,TBIL,[2],0.3 mg/dL
same,TC,[2],69.2 mg/dL
same,TG,[2],126.8 mg/dL
same,TP,[2],6.1 g/dL
same,gamma-GTP,[2],0.6 IU/L
same,A/G,[3],1.8
same,ALP,[3],780.8 IU/L
same,ALT,[3],30.6 IU/L
same,AST,[3],60.6 IU/L
same,BUN,[3],19.8 mg/dL
same,CRE,[3],0.6 mg/dL
same,Ca,[3],10.4 mg/dL
same,Cl,[3],105.6 meq/L
same,DBIL,[3],0.012 mg/dL
same,GLC,[3],201.2 mg/dL
same,IP,[3],8.5 mg/dL
same,K,[3],4.8 meq/L
same,LDH,[3],82.6 IU/L
same,Na,[3],138.2 meq/L
same,PL,[3],147.6 mg/dL
same,RALB,[3],3.9 g/dL
same,TBIL,[3],0.3 mg/dL
same,TC,[3],72.4 mg/dL
same,TG,[3],130.4 mg/dL
same,TP,[3],6.2 g/dL
same,gamma-GTP,[3],1.6 IU/L
same,A/G,[4],1.9
same,ALP,[4],622.6 IU/L
same,ALT,[4],27.6 IU/L
same,AST,[4],56.2 IU/L
same,BUN,[4],18.8 mg/dL
same,CRE,[4],0.7 mg/dL
same,Ca,[4],10.7 mg/dL
same,Cl,[4],105.2 meq/L
same,DBIL,[4],0.018 mg/dL
same,GLC,[4],206.4 mg/dL
same,IP,[4],7.5 mg/dL
same,K,[4],4.1 meq/L
same,LDH,[4],62.4 IU/L
same,Na,[4],139.2 meq/L
same,PL,[4],163.2 mg/dL
same,RALB,[4],4.3 g/dL
same,TBIL,[4],0.3 mg/dL
same,TC,[4],79.6 mg/dL
same,TG,[4],181.2 mg/dL
same,TP,[4],6.6 g/dL
same,gamma-GTP,[4],1.8 IU/L
same,TERMINAL_BW,[5],239.1 g
same,APTT,[5],16.8 s
same,Bas,[5],0%
same,Eos,[5],0.4%
same,Fbg,[5],230.8 mg/dL
same,Hb,[5],13.6 g/dL
same,Ht,[5],40.7%
same,Lym,[5],79%
same,MCH,[5],21.7 pg
same,MCHC,[5],33.5%
same,MCV,[5],65 fL
same,Mono,[5],7.6%
same,Neu,[5],12.8%
same,PT,[5],10.9 s
same,Plat,[5],102.8 x10_4/uL
same,RBC,[5],626.4 x10_4/ul
same,Ret,[5],7%
same,WBC,[5],89 x10_2/uL
same,KIDNEY_L,[5],1.1 g
same,KIDNEY_R,[5],1.1 g
same,KIDNEY_TOTAL,[5],2.2 g
same,LIVER,[5],11.8 g
same,A/G,[5],1.9
same,ALP,[5],1210.2 IU/L
same,ALT,[5],35.2 IU/L
same,AST,[5],64.4 IU/L
same,BUN,[5],16.8 mg/dL
same,CRE,[5],0.6 mg/dL
same,Ca,[5],10.6 mg/dL
same,Cl,[5],105.8 meq/L
same,DBIL,[5],0.032 mg/dL
same,GLC,[5],196.6 mg/dL
same,IP,[5],7.9 mg/dL
same,K,[5],4.9 meq/L
same,LDH,[5],91.4 IU/L
same,Na,[5],138.8 meq/L
same,PL,[5],165.2 mg/dL
same,RALB,[5],3.9 g/dL
same,TBIL,[5],0.3 mg/dL
same,TC,[5],86 mg/dL
same,TG,[5],108 mg/dL
same,TP,[5],5.9 g/dL
same,gamma-GTP,[5],1.2 IU/L
same,TERMINAL_BW,[6],272.4 g
same,TERMINAL_BW,[7],337.2 g
same,TERMINAL_BW,[8],425.7 g
same,APTT,[6],16.3 s
same,Bas,[6],0%
same,Eos,[6],0.6%
same,Fbg,[6],240.2 mg/dL
same,Hb,[6],13.8 g/dL
same,Ht,[6],41.9%
same,Lym,[6],82.8%
same,MCH,[6],21.1 pg
same,MCHC,[6],33.1%
same,MCV,[6],63.9 fL
same,Mono,[6],7.2%
same,Neu,[6],9.2%
same,PT,[6],11.7 s
same,Plat,[6],121.9 x10_4/uL
same,RBC,[6],656.8 x10_4/ul
same,Ret,[6],7.2%
same,WBC,[6],124.3 x10_2/uL
same,APTT,[7],16.5 s
same,Bas,[7],0%
same,Eos,[7],0.8%
same,Fbg,[7],232.4 mg/dL
same,Hb,[7],14.4 g/dL
same,Ht,[7],43.4%
same,Lym,[7],85.4%
same,MCH,[7],19.8 pg
same,MCHC,[7],33.1%
same,MCV,[7],59.8 fL
same,Mono,[7],4.8%
same,Neu,[7],9%
same,PT,[7],11.6 s
same,Plat,[7],119.2 x10_4/uL
same,RBC,[7],726.6 x10_4/ul
same,Ret,[7],4.3%
same,WBC,[7],140.8 x10_2/uL
same,APTT,[8],16.4 s
same,Bas,[8],0%
same,Eos,[8],0.8%
same,Fbg,[8],249.8 mg/dL
same,Hb,[8],15.2 g/dL
same,Ht,[8],45.7%
same,Lym,[8],83.6%
same,MCH,[8],19.1 pg
same,MCHC,[8],33.2%
same,MCV,[8],57.5 fL
same,Mono,[8],5.6%
same,Neu,[8],10.6%
same,PT,[8],11.8 s
same,Plat,[8],113.7 x10_4/uL
same,RBC,[8],795.8 x10_4/ul
same,Ret,[8],2.7%
same,WBC,[8],149.8 x10_2/uL
same,KIDNEY_L,[6],1.1 g
same,KIDNEY_R,[6],1.1 g
same,KIDNEY_TOTAL,[6],2.3 g
same,KIDNEY_L,[7],1.3 g
same,KIDNEY_R,[7],1.3 g
same,KIDNEY_TOTAL,[7],2.6 g
same,KIDNEY_L,[8],1.4 g
same,KIDNEY_R,[8],1.4 g
same,KIDNEY_TOTAL,[8],2.8 g
same,LIVER,[6],13.5 g
same,LIVER,[7],16.3 g
same,LIVER,[8],18.6 g
same,A/G,[6],2.1
same,ALP,[6],892.6 IU/L
same,ALT,[6],30.2 IU/L
same,AST,[6],61.4 IU/L
same,BUN,[6],20 mg/dL
same,CRE,[6],0.5 mg/dL
same,Ca,[6],11 mg/dL
same,Cl,[6],105.6 meq/L
same,DBIL,[6],0.006 mg/dL
same,GLC,[6],193.2 mg/dL
same,IP,[6],8.2 mg/dL
same,K,[6],4.9 meq/L
same,LDH,[6],89.2 IU/L
same,Na,[6],139.4 meq/L
same,PL,[6],156.6 mg/dL
same,RALB,[6],4 g/dL
same,TBIL,[6],0.4 mg/dL
same,TC,[6],77.4 mg/dL
same,TG,[6],149.6 mg/dL
same,TP,[6],6 g/dL
same,gamma-GTP,[6],1.4 IU/L
